Data taken from publication PMC8432116, “Drug–Drug Interaction between Tacrolimus and Vonoprazan in Kidney Transplant Recipients” (Journal of Clinical Medicine, 2021).
Values joined by “and” are separate entries in the source; they are usually repeats but may differ in a detail not shown here. Identical values can stand only once. Like-named read-outs stand apart in the source and are kept apart here. One block for each compound: values may come before it.

Assays:
[1] = Laboratory data of liver and kidney function before and after the switch; assay type: in vivo, human; settings: during the named PPI phase; 18 recipients on tacrolimus
Description: (§1) Eighteen kidney transplant recipients were recruited for this study from February 2015 to July 2020 (Table 1). The recipients were treated with tacrolimus-based immunosuppression, tacrolimus QD (Graceptor®; Astellas Pharma, Tokyo, Japan) in combination with mycophenolate mofetil and corticosteroids. The initial dose of tacrolimus QD was 0.15–0.20 mg/kg/day for 3–7 days before transplantation. The patients’ PPIs were switched from oral rabeprazole to vonoprazan (TAK-438; Takecab®; Takeda Pharmaceutical Company Limited., Tokyo, Japan) for intensive gastric acid suppression on postoperative days (POD) 3–43. The median (range) dose of oral rabeprazole and vonoprazan were 0.16 (0.11–0.22) and 0.31 (0.11–0.44) mg/kg/day, respectively (Table 1). Blood concentrations of tacrolimus were […] when the rabeprazole was switched to vonoprazan. Liver function for the patients was normal. […] Major symptoms due to gastric ulcer, retching, and heartburn disappeared by switching from rabeprazole to vonoprazan.

[2] = tested on: P-glycoprotein; design: method as in PMID 15467223; settings: read-out: IC50 for inhibition of P-glycoprotein transporter activity; cited from earlier work
[3] = Estimated maximum concentration in the intestinal lumen according to DDI guidelines; design: species or system human
Source text: P-glycoprotein, a drug efflux transporter expressed in the intestinal lumen, can be considered in addition to CYP as the mechanism of the DDIs between vonoprazan and tacrolimus.

[4] = cited from earlier work; for Increase in C/D ratio of tacrolimus after the conversion: outpatient phase of post-transplantation
[5] = Clinical observation of adverse events and gastric symptoms after switching; assay type: in vivo, human
Description: as §1

[6] = design: method as in PMID 19177031; settings: cited from earlier work
[7] = Whole blood trough concentration and C/D ratio of tacrolimus before and after switching PPI from rabeprazole to vonoprazan; assay type: in vivo, human; settings: for Trough tacrolimus concentration, typical case / C/D ratio of tacrolimus, typical case: single case; for Percentage increase of the C/D ratio: vonoprazan coadministration; for Tacrolimus trough concentration, median (range): whole blood, 18 kidney transplant recipients
Description: as §1
Whole blood concentrations of tacrolimus were measured using the ARCHITECT chemiluminescent immunoassay system (Abbot, Abbot Park, IL, USA). Blood samples were collected in the morning just before the morning administration of tacrolimus to determine the trough levels. Tacrolimus dose was adjusted to achieve predefined target concentration ranges of 5–10 ng/mL (POD −3–14), 7–8 ng/mL (POD 14–28), and 5–8 ng/mL (after POD 28). The change in concentration/dose (C/D; in nanogram per milliliter/milligram per kilogram) ratio of tacrolimus before and after initiating oral vonoprazan was calculated to assess the DDIs.
Genomic DNA was extracted from peripheral whole blood samples using the QIAamp DNA blood kit system (Qiagen, Hilden, Germany) according to the manufacturer’s instruction. Subjects were genotyped for CYP2C19 rs4244285 (CYP2C19*2), CYP2C19 rs4986893 (CYP2C19*3), and CYP3A5 rs776746 (CYP3A5*3) polymorphisms. These variants were identified by real-time polymerase chain reaction (PCR) using a TaqMan® Drug Metabolism Genotyping Assays (Thermo Fisher Scientific, Waltham, MA, USA) with a QuantStudio 3 real-time PCR system (Thermo Fisher Scientific). Recipients were categorized into two groups based on the CYP2C19 genotypes (extensive metabolizer (EM; CYP2C19*1/*1)), intermediate metabolizer (IM; CYP2C19*1/*2 and *1/*3), and poor metabolizer (PM; *2/*2, *2/*3, and *3/*3)] and the CYP3A5 genotypes (CYP3A5*1 carrier (CYP3A5*1/*1 and CYP3A5*1/*3)) and the noncarrier (CYP3A5*3/*3)].
The Wilcoxon signed-rank test was used to compare the difference in the concentration and C/D ratio of tacrolimus before and after switching to vonoprazan. Differences in the concentration and C/D ratio of tacrolimus among the genotypes were compared by the Mann–Whitney U test. The statistical analyses were carried out using SPSS 26.0 (IBM, Tokyo, Japan). Results with a p value of <0.05 were considered statistically significant.

[8] = CYP2C19 EM, n=5, rabeprazole to vonoprazan
[9] = CYP2C19 IM/PM, n=13, Rabeprazole
[10] = CYP2C19 IM/PM, n=13, Vonoprazan
[11] = CYP2C19 IM/PM, n=13, rabeprazole to vonoprazan
[12] = CYP3A5 *1 carrier, n=5, Rabeprazole
[13] = CYP3A5 *1 carrier, n=5, Vonoprazan
[14] = CYP3A5 *1 carrier, n=5, rabeprazole to vonoprazan
[15] = CYP3A5 *1 noncarrier, n=13, Rabeprazole
[16] = CYP3A5 *1 noncarrier, n=13, Vonoprazan
[17] = CYP3A5 *1 noncarrier, n=13, rabeprazole to vonoprazan
[18] = rabeprazole to vonoprazan, 18 recipients
[19] = vonoprazan coadministration vs rabeprazole

Alanine aminotransferase, median (range) [1]: 28 IU/L
Aspartate aminotransferase, median (range) [1]: 16 IU/L
Blood urine nitrogen, median (range) [1]: 24.2 (9.8–78.7) mg/dL
Serum creatinine, median (range) [1]: 1.55 (0.62–4.31) mg/dL
Estimated maximum concentration in the intestinal lumen ([3]; administered at 10 mg): 111 µM
Compound: COCCCOc1ccnc(C[S+]([O-])c2nc3ccccc3[nH]2)c1C (stereo not shown) [Rabeprazole]
IC50 [2]: ≥ 100 µM

Tacrolims C/D Ratio, median ([7]; CYP2C19 EM, n=5, Rabeprazole): 25.6 (ng/mL)/(mg/kg/day)
Tacrolimus Concentration, median ([7]; CYP2C19 EM, n=5, Rabeprazole): 4.0 ng/mL
Tacrolims C/D Ratio, median ([7]; CYP2C19 EM, n=5, Vonoprazan): 40.7 (ng/mL)/(mg/kg/day)
Tacrolimus Concentration, median ([7]; CYP2C19 EM, n=5, Vonoprazan): 8.5 ng/mL
ΔC/D Ratio, median [7, 8]: 15.1
ΔConcentration, median [7, 8]: 3.6 ng/mL
Tacrolims C/D Ratio, median [7, 9]: 39.5 (ng/mL)/(mg/kg/day)
Tacrolimus Concentration, median [7, 9]: 5.3 ng/mL
Tacrolims C/D Ratio, median [7, 10]: 50.4 (ng/mL)/(mg/kg/day)
Tacrolimus Concentration, median [7, 10]: 7.7 ng/mL
ΔC/D Ratio, median [7, 11]: 6.3
ΔConcentration, median [7, 11]: 3 ng/mL
Tacrolims C/D Ratio, median [7, 12]: 36.9 (ng/mL)/(mg/kg/day)
Tacrolimus Concentration, median [7, 12]: 5.3 ng/mL
Tacrolims C/D Ratio, median [7, 13]: 45.1 (ng/mL)/(mg/kg/day)
Tacrolimus Concentration, median [7, 13]: 8.5 ng/mL
ΔC/D Ratio, median [7, 14]: 14.6
ΔConcentration, median [7, 14]: 2.8 ng/mL
Tacrolims C/D Ratio, median [7, 15]: 44.9 (ng/mL)/(mg/kg/day)
Tacrolimus Concentration, median [7, 15]: 5.0 ng/mL
Tacrolims C/D Ratio, median [7, 16]: 50.4 (ng/mL)/(mg/kg/day)
Tacrolimus Concentration, median [7, 16]: 7.5 ng/mL
ΔC/D Ratio, median [7, 17]: 18.3
ΔConcentration, median [7, 17]: 3.3 ng/mL
Percent change in tacrolimus C/D ratio after the switching, median (range) [7, 18]: 41.8% and 41.8 (2.7–129.8) %
Percent change in tacrolimus concentration after the switching, median (range) [7, 18]: 65.8% and 65.8 (0.0–192.5) %
Trough tacrolimus concentration, typical case ([7]; after switching to vonoprazan): 9.4 to 10.7 ng/mL
C/D ratio of tacrolimus, typical case ([7]; rabeprazole phase): 26.2–29.0
Trough tacrolimus concentration, typical case ([7]; rabeprazole phase): 3.8 to 4.7 ng/mL
C/D ratio of tacrolimus, typical case ([7]; vonoprazan phase, 10 mg, before dose escalation): 33.6–37.1
C/D ratio of tacrolimus, typical case ([7]; vonoprazan phase, after escalation to 20 mg): 41.3–48.8
Elevation in C/D ratio of tacrolimus [7, 19]: 1.4 fold
Elevation in blood concentration of tacrolimus [7, 19]: 1.7 fold
Percentage increase of the C/D ratio ([7]; CYP3A5*1 carriers): 44.4%
Percentage increase of the C/D ratio ([7]; CYP3A5*1 noncarriers): 39.1%
Tacrolimus trough concentration, median (range) ([7]; with rabeprazole, before switching): 5.2 (3.6–7.4) ng/mL
Tacrolimus trough concentration, median (range) ([7]; with vonoprazan, after switching): 8.1 (6.1–11.7) ng/mL
Tacrolimus C/D ratio, median (range) ([7]; with rabeprazole, before switching, 18 recipients): 38.1 (16.5–138.1) (ng/mL)/(mg/kg)
Tacrolimus C/D ratio, median (range) ([7]; with vonoprazan, 7 days after initiating, 18 recipients): 48.9 (26.6–207.2) (ng/mL)/(mg/kg)
Compound: C=CC[C@@H]1/C=C(\C)C[C@H](C)C[C@H](OC)[C@H]2O[C@@](O)(C(=O)C(=O)N3CCCC[C@H]3C(=O)O[C@H](/C(C)=C/[C@@H]3CC[C@@H](O)[C@H](OC)C3)[C@H](C)[C@@H](O)CC1=O)[C@H](C)C[C@@H]2OC [Tacrolimus]
Increase in C/D ratio of tacrolimus after the conversion ([4]; ref 27): 10.6%
Increase in C/D ratio of tacrolimus after the conversion ([4]; ref 30): no increase
Increase of the C/D ratio of tacrolimus after switching rabeprazole to vonoprazan ([4]; outpatients 2–7 years post-transplantation): 1.1 fold
Increase of tacrolimus trough levels after switching to vonoprazan ([4]; outpatients, even in the CYP2C19 IM/PM in the CYP3A5*1 noncarriers): no significant increase
Adverse events ([5]; all patients, after switching to vonoprazan, tacrolimus kept in therapeutic range): No adverse event was observed
Therapeutic range of blood concentration [6]: 5 to 15 ng/mL

Alanine aminotransferase, median (range) [1]: 22 IU/L
Aspartate aminotransferase, median (range) [1]: 15 IU/L
Blood urine nitrogen, median (range) [1]: 17.4 (7.5–45.4) mg/dL
Serum creatinine, median (range) [1]: 1.21 (0.58–2.84) mg/dL
Estimated maximum concentration in the intestinal lumen ([3]; administered at 20 mg): 231 µM
Compound: CNCc1cc(-c2ccccc2F)n(S(=O)(=O)c2cccnc2)c1.O=C(O)/C=C/C(=O)O [Vonoprazan, 1-[5-(2-Fluorophenyl)-1-(pyridin-3-ylsulfonyl)-1H-pyrrol-3-yl]-N-methylmethanamine monofumarate]
IC50 [2]: 50 µM
Major symptoms due to gastric ulcer, retching and heartburn ([5]; switching from rabeprazole to vonoprazan): disappeared
